In the test the target is T1, human TRPM8 channel (Homo sapiens, UniProt Q7Z2W7).
T1 construct: The open reading frame of human cDNA TRPM8 from position 41-3355bp was amplified; expressed in transfected cells
Put plainly: Intracellular calcium (fluo-4 fluorescence) assay in HEK 293 cells stably expressing human TRPM8. The test is classed as cell-based. The note with it: fluo-4 calcium fluorescence, concentration producing one-half of maximal response (DFmax). An excerpt: Humans can detect changes in temperature from noxious cold (<8 C) to noxious heat (>52 C) due to activation of sensory nerve fibers. “The principal temperature sensors in the sensory nerve fibers are members of a family of transient receptor potential (TRP) cation channels” (Voets et al., 2004). In humans the sensation of cooling is elicited by activation of channel TRPM8, which is activated at temperatures below 28 C (Voets et al., 2004). Furthermore human TRPM8 is activated by compounds such as menthol (Brauchi et al., Proc. Natl. Acad. Sci. USA, 2004, Oct. 26; 101 (43):15494-9; Voets et al., Nature, 2004, 430 (7001): 748-54). […]
The open reading frame of human cDNA TRPM8 from position 41-3355bp was amplified from a human prostate cDNA library (Stratagene) using primers […] and […] as previously described previously (Tsavalier et al., 2001). […]
Cells stably expressing the human TRPM8 were seeded in a 96 well plate (coated with polylysine) at a density of 10^5 cells /well in 200 μl of media. […] The dye was then removed and the cells were incubated in a Tyrodes buffer (containing 1 mM probenicide, pH 7.4) pre-equilibrated at a certain temperature (i.e 37° C.) and the intracellular calcium levels were monitored at the same temperature, using the Novostar plate reader. The cells in each well were illuminated at 480 nm, and the fluorescent light emitted at 510 nm was measured. […]
On the technique in general: A change in cytosolic calcium serves as a functional read-out for many receptors and channels.

Drawing on patent US7615560B2, “Thienopyrimidines as cooling agents” (Conopco, Inc., priority 2004, dated 2009), this text covers EC50 for one compound.

T1 sequence (Q7Z2W7 whole entry): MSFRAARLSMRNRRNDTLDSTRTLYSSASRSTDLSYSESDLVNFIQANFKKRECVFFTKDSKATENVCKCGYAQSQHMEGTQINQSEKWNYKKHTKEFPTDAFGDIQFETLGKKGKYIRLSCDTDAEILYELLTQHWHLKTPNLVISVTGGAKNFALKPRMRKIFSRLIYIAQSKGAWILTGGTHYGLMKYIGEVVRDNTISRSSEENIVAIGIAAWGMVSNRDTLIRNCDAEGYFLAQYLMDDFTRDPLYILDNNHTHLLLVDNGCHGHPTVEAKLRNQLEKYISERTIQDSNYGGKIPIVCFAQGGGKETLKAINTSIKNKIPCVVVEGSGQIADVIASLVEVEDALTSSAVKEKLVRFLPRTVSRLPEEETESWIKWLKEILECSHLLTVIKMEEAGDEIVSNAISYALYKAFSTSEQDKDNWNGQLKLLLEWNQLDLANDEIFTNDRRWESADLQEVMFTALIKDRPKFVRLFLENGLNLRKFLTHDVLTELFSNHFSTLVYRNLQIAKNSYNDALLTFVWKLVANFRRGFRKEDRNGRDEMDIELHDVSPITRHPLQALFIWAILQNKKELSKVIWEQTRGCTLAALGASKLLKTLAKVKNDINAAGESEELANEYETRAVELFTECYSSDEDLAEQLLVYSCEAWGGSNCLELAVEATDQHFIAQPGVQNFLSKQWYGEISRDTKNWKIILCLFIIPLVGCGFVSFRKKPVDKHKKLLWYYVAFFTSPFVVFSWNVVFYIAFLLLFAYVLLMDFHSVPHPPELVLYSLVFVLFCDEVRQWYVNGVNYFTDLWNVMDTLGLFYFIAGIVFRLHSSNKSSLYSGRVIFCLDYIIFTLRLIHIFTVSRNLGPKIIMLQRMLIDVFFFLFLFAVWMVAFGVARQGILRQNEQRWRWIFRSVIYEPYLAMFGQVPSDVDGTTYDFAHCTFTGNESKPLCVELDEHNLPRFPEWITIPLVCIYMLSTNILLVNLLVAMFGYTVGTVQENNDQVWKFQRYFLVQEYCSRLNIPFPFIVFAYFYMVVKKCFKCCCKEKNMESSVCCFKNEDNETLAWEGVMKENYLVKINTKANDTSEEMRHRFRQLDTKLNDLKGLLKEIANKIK

As a reminder, the EC50 is the concentration needed to bring the measured effect to its halfway point. On to `CCCn1cnc2sc3c(c2c1=N)CCCC3` [Example 1, 3-propyl-5,6,7,8-tetrahydro-3H-benzo[4,5]-thieno[2,3-d]pyrimidin-4-ylidene amine], for which the EC50 came to 6.5 µM.
